According to patent US20250188041A1, “NEW COMPOUNDS AND TREATMENT OF RENAL CELL CARCINOMA” (Trustlife Global Inc., priority 2022, published 2025):
Entries after “also recorded” stand apart in the source; their conditions may differ.

Assays:
Assay type in all cases: cell-based, Human
Caki-1 cells [1] = assay: MTT cell viability assay of Caki-1 treated with TG-101209 and its alternatives; settings: for IC50: Homo sapiens, FIG. 43, assay not named, presumably Caki-1 cell viability; for cell viability (MTT assay) / Ranking, Cell viability (%): 1 day; for Ranking, Cell viability (%): top five target drugs, MTT assay, 10 μM, rank 1 = greatest reduction
Method: (§1) Cell culture 2: Caki-1 was purchased from CLS Cell Lines Service (Germany). The cells were maintained in McCoy's SA (modified) medium (16600082, Thermo Fisher Scientific, USA) and supplemented with 10% fetal bovine serum (FBS, F7524, Sigma-Aldrich), 1% Penicillin/Streptomycin (P4333, Sigma-Aldrich).
The cytotoxic effects of the TG-101209 and its alternatives on the Caki-1 cells were tested by MTT (Thiazolyl Blue Tetrazolium Bromide) method. 1.5×10^4 cells were seeded per well in a 96-well plate in 100 μL growth media. […] After the incubation period, 5 mg/ml MTT (M2128, Sigma-Aldrich) solution in PBS (10 μL) was added to each well. After 1 hour, the MTT solution and all media were removed from the wells. 100 μl of DMSO was added and mixed to dissolve the formazan crystals. Cell viability was analysed by measuring the absorbance of the dissolved formazan at a wavelength of 570 nm with a microplate reader (Hidex Sense Beta Plus).

BUB1B = assay: Western blot, BUB1B expression in Caki-1 treated with TG-101209 alternatives; settings: Caki-1, 5 μM of target drug, 1 day (FIG. 41; method says 2 days)
Method: as §1
The target drugs developed as alternatives to TG-101209, were dissolved in 0.1% DMSO (41639, Sigma-Aldrich). Caki-1 cells from cell culture 2 were seeded in a 6-well plate at 3×10^5 cells per well. […]
The cells were washed with PBS solution and then lysed with CelLytic M (C2978, Sigma-Aldrich) lysis buffer containing protease inhibitors (11836170001, Roche). The cell lysates were centrifuged at 12 000 rpm for 10 min and supernatants were collected. Protein Assay Dye Reagent (5000006, Bio-Rad) was used for the determination of protein concentration. The absorbance of the proteins was measured spectrophotometrically at 595 nm by a microplate reader (Hidex Sense Beta Plus). Protein electrophoresis was performed using Mini-PROTEAN® TGX™ Precast Gels (4561086, Bio-Rad) and then the separated proteins were transferred to a Trans-Blot Turbo Mini 0.2 um PVDF Transfer Packs membrane (1704158, Bio-Rad) by using Trans-Blot® Turbo™ Transfer System (Bio-Rad). The membrane was blocked with 5% skim milk for 30 min at 4° C. with gentle rocking. After blocking, the membrane was treated with primary antibodies: Anti-BUB1B (HPA008419, Human Protein Atlas, Sweden) and Anti-Beta actin (ab8227, Abcam) as a loading control overnight at 4° C. on a rocking platform. After the treatment of primary antibodies, the membrane was washed three times with TBS-T buffer (A09-7500-100, Medicago). Then, Goat anti-Rabbit IgG-HRP (ab205718, Abcam) was treated as the secondary antibody for 30 min at 4° C. with gentle rocking.

Caki-1 cells [2] = assay: LDH cytotoxicity assay of Caki-1; settings: 1 day; for cytotoxicity (LDH assay): Caki-1, 10 μM; for Ranking, Cytotoxicity (%): top five target drugs, LDH assay, 10 μM, rank 1 = highest cytotoxicity
Method: as §1
Lactate dehydrogenase (LDH) assay was performed with LDH Assay Kit (ab65393). 1.5×10^4 cells per well (from cell culture 2) were seeded in a 96-well plate and drugs were treated at 10 μM for 1 day with 200 μl media. 20 μl of media was analysed with LDH Assay Kit as per manufacturer's instruction.

| Structure (SMILES) | IC50 (Caki-1 cells [1]) [µM] | expression levels of BUB1B (BUB1B) | cytotoxicity (LDH assay) (Caki-1 cells [2]) | Ranking, Cytotoxicity (%) (Caki-1 cells [2]) | cell viability (MTT assay) (Caki-1 cells [1]; Caki-1, 5 μM) | cell viability (MTT assay) (Caki-1 cells [1]; Caki-1, 10 μM) | cell viability (MTT assay) (Caki-1 cells [1]; Caki-1, 10 μM, listed as MS) | Ranking, Cell viability (%) (Caki-1 cells [1]) |
| --- | --- | --- | --- | --- | --- | --- | --- | --- |
| Cc1cnc(Nc2ccc(N3CCN(C)CC3)cc2)nc1Nc1cccc(S(=O)(=O)Nc2ccccc2)c1 [M3, 3-((5-methyl-2-((4-(4-methylpiperazin-1-yl)phenyl)amino)pyrimidin-4-yl)amino)-N-phenylbenzenesulfonamide] | ~3 | significantly lower the expression levels of BUB1B |  |  |  |  |  |  |
| Cc1cnc(Nc2ccc(N3CCN(C)CC3)cc2)nc1Nc1cccc(S(=O)(=O)NC2CCC2)c1 [M5, N-cyclobutyl-3-((5-methyl-2-((4-(4-methylpiperazin-1-yl)phenyl)amino)pyrimidin-4-yl)amino)benzenesulfonamide] | ~3 | significantly lower the expression levels of BUB1B | exhibited cytotoxicity; also recorded: highest cytotoxicity; also recorded: greatest cytotoxicity | 2 | greatest | greatest reduction of cell viability; also recorded: greatest reduction in cell viability | most profound effect on the cell viability | 1 |
| Cc1cnc(Nc2ccc(N3CCN(C)CC3)cc2)nc1Nc1cccc(S(=O)(=O)N2CCOCC2)c1 [M7, 5-methyl-N2-(4-(4-methylpiperazin-1-yl)phenyl)-N4-(3-(morpholinosulfonyl)phenyl)pyrimidine-2,4-diamine] | > 3 | significantly lower the expression levels of BUB1B |  |  |  |  |  |  |
| Cc1cn(-c2cc(Nc3ncc(C)c(Nc4cccc(S(=O)(=O)NC(C)(C)C)c4)n3)cc(C(F)(F)F)c2)cn1 [M64, N-(tert-butyl)-3-((5-methyl-2-((3-(4-methyl-1H-imidazol-1-yl)-5-(trifluoromethyl)phenyl)amino)pyrimidin-4-yl)amino)benzenesulfonamide] | > 3 | significantly lower the expression levels of BUB1B |  |  |  |  |  |  |
| Cc1ccc(Nc2ncc(C)c(Nc3cccc(S(=O)(=O)NC(C)(C)C)c3)n2)cc1S(N)(=O)=O [M66, N-(tert-butyl)-3-((5-methyl-2-((4-methyl-3-sulfamoylphenyl)amino)pyrimidin-4-yl)amino)benzenesulfonamide] |  | significantly lower the expression levels of BUB1B | exhibited cytotoxicity | 4 | greatest | most profound effect on the cell viability |  | 3 |
| COc1cc(Nc2ncc(C)c(Nc3cccc(S(=O)(=O)NC(C)(C)C)c3)n2)cc(OC)c1 [M79, N-(tert-butyl)-3-((2-((3,5-dimethoxyphenyl)amino)-5-methylpyrimidin-4-yl)amino)benzenesulfonamide] | ~3 | significantly lower the expression levels of BUB1B |  |  |  |  |  |  |
| COc1cc(NC(=O)c2ccc(Nc3ncc(C)c(Nc4cccc(S(=O)(=O)NC(C)(C)C)c4)n3)cc2)cc(OC)c1 [M101A, 4-((4-((3-(N-(tert-butyl)sulfamoyl)phenyl)amino)-5-methylpyrimidin-2-yl)amino)-N-(3,5-dimethoxyphenyl)benzamide] |  |  | exhibited cytotoxicity | 5 | greatest | most profound effect on the cell viability |  | 4 |
| Cc1cnc(Nc2ccc(C(=O)Nc3cccc(Br)c3)cc2)nc1Nc1cccc(S(=O)(=O)NC(C)(C)C)c1 [M101B, N-(3-bromophenyl)-4-((4-((3-(N-(tert-butyl)sulfamoyl)phenyl)amino)-5-methylpyrimidin-2-yl)amino)benzamide] |  |  | exhibited cytotoxicity | 3 | greatest |  |  |  |
| Cc1cnc(Nc2ccc(C(=O)Nc3cccc(S(=O)(=O)NC(C)(C)C)c3)cc2)nc1Nc1cccc(S(=O)(=O)NC(C)(C)C)c1 [M101D, N-(3-(N-(tert-butyl)sulfamoyl)phenyl)-4-((4-((3-(N-(tert-butyl)sulfamoyl)phenyl)amino)-5-methylpyrimidin-2-yl)amino)benzamide] |  |  | exhibited cytotoxicity; also recorded: highest cytotoxicity; also recorded: greatest cytotoxicity | 1 | greatest | most profound effect on the cell viability; also recorded: greatest reduction of cell viability; also recorded: greatest reduction in cell viability |  | 2 |
| Cc1cnc(Nc2ccc(C(=O)Nc3cccc(S(=O)(=O)N4CCOCC4)c3)cc2)nc1Nc1cccc(S(=O)(=O)NC(C)(C)C)c1 [M101F, 4-((4-((3-(N-(tert-butyl)sulfamoyl)phenyl)amino)-5-methylpyrimidin-2-yl)amino)-N-(3-(morpholinosulfonyl)phenyl)benzamide] |  |  | exhibited cytotoxicity |  | greatest |  |  |  |
| Cc1cnc(Nc2ccc(C(=O)Nc3ccc(OCCCN4CCOCC4)cc3)cc2)nc1Nc1cccc(S(=O)(=O)NC(C)(C)C)c1 [M101G, 4-((4-((3-(N-(tert-butyl)sulfamoyl)phenyl)amino)-5-methylpyrimidin-2-yl)amino)-N-(4-(3-morpholinopropoxy)phenyl)benzamide] |  |  |  |  | greatest |  |  |  |
| Cc1cnc(Nc2ccc(C(=O)Nc3ccc4ncccc4c3)cc2)nc1Nc1cccc(S(=O)(=O)NC(C)(C)C)c1 [M101H, 4-((4-((3-(N-(tert-butyl)sulfamoyl)phenyl)amino)-5-methylpyrimidin-2-yl)amino)-N-(quinolin-6-yl)benzamide] |  |  |  |  | greatest |  |  |  |
| Cc1cnc(Nc2ccc(OCCCN3CCOCC3)cc2)nc1Nc1cccc(S(=O)(=O)NC(C)(C)C)c1 [M103, N-(tert-butyl)-3-((5-methyl-2-((4-(3-morpholinopropoxy)phenyl)amino)pyrimidin-4-yl)amino)benzenesulfonamide] | ~3 |  |  |  |  |  |  |  |
